Data taken from patent US20070213403A1, “TAMOXIFEN RESPONSE IN PRE-AND POST[…] CANCER PATIENTS” (priority 2004, published 2007).

What was measured:
[1] = test system: premenopausal patients with stage II invasive breast cancer; assay: Randomised trial of two years of adjuvant tamoxifen vs control in premenopausal patients; assay type: in vivo, human
Source text: Premenopausal patients or patients under 50 years with stage II (pT2 N0 M0, pT1 N1 M0 and pT2, N1 M0) invasive breast cancer were enrolled in a clinical trial between 1986 -1991 and randomized to control (n=288) or two years of tamoxifen (n=276). All patients were radically operated by modified radical mastectomy or breast conserving surgery with axillary lymph node dissection (level one and two). After breast conserving surgery, radiotherapy (50 Gy) was given to the breast and in patients with axillary lymph node metastases locoregional radiotherapy was delivered. Patients were included irrespective of hormone receptor status. Randomization was performed by the Regional Oncologic Centre and oral informed consent registered for all patients. The study was approved by the ethical committee at Lund and Linkoping Universities.
The patients were followed until 5 years with annual mammogram and physical examination and then within the national program by screening mammogram every 18th month.The median duration of follow-up for patients without breast cancer event was 13.9 years (95% Cl: 13.6-14.3). The median follow-up time was the same in the two treatment arms. • 2. Postmenopausal Patients
(§1) 3-4 um sections of the paraffin embedded tissue arrays were dried, deparaffinized, rehydrated and microwave treated for 5+5 min in a citrate buffer (pH 6.0) before being processed in an automatic immunohistochemistry staining machine according to standard procedures (TechMate500, Dako, Denmark) using a polyclonal VEGF (A-20) antibody diluted 1:400 recognizing VEGF 165, 189 and 121 (Santa Cruz, Calif., USA) and a monoclonal VEGFR2 antibody recognizing VEGFR2/KDR diluted 1:1000 (Santa Cruz, Calif., USA). Normal human kidneys were used as positive controls for VEGF-A and for VEGFR2, human aortic endothelium served as positive controls. VEGF-A was previously validated using an ELISA-based method (LR). The cytoplasmatic staining intensity was evaluated semi-quantitatively using a classification from 0-3, representing lack of staining (0), low staining intensity (1), intermediate staining intensity (2) and high staining intensity (3). Only invasive tumor cells were evaluated. In survival analyses, high staining intensity (grade 3) was compared with the other grades (0, 1, 2) for both VEGF-A and VEGFR2 in premenopausal patients. In postmenopausal patients lack of staining was compared with staining of any intensity.
ER and PR were determined by immunohistochemistry in a tissue microarray. For this purpose, the Ventana Benchmark system (Ventana Medical Systems Inc., AZ, USA) with prediluted antibodies (Anti-ER Clone 6F11 and Anti-PgR Clone 16) was used. In line with the clinically established cut-off used for hormone receptor assessment, tumors with more than 10% positively staining nuclei were considered positive. In addition, the fractions of positive nuclei were quantified. […]
(§2) For survival analyses all calculations were done according to the intention to treat rule. Recurrence-free survival (RFS) considered distant, local and regional metastasis as primary event as well as breast cancer death, whereas contralateral breast cancer was not included. The Kaplan-Meier method was used to estimate recurrence-free and breast cancer survival and the log-rank test to compare survival in different strata. Cox proportional hazards model was used for estimation of univariate hazard ratios (HRs) and multivariate analysis.

[2] = test system: postmenopausal patients with stage II invasive breast cancer; assay: Randomised trial of two years of tamoxifen (40 mg/day) vs control in postmenopausal patients; assay type: in vivo, human
Source text: The patients included were enrolled in a multi-center clinical trial at Umea University Hospital, Sweden, during 1980-1987 (Trial II) included in the Oxford meta-analysis. The inclusion criteria were postmenopausal patients (>55 years) with stage II (pT1, pN1, pM0, pT2, pN0, pM0, pT2, […], pM0) invasive breast cancer. For patients older than 70 years, stage II and stage III breast cancer patients were included. Patients were operated with modified radical mastecomy. The hormone receptor level was not determined at time of randomization. Patients were randomized to control or tamoxifen treatment (40 mg/day) for two years by the Regional Oncologic Center and oral informed consent was registered on admission to the Oncological Clinic. The study was approved by the Ethical Committee at the Umea university 1980 as well as 2002 (modification regarding molecular markers used in tissue micro array). The median age was 66.5 years (55-75 years) at inclusion. The median follow-up time was 18 years (range 15-22 years) for surviving patients.
as §1
ER and PR were determined by immunohistochemistry in a tissue microarray. For this purpose, the Ventana Benchmark system (Ventana Medical Systems Inc., AZ, USA) with prediluted antibodies (Anti-ER Clone 6F11 and Anti-PgR Clone 16) was used. In line with the clinically established cut-off used for hormone receptor assessment, tumors with more than 10% positively staining nuclei were considered positive. In addition, the fractions of positive nuclei were quantified.
as §2

[3] = test system: hormone receptor positive breast cancer; conditions: adjuvant tamoxifen for five years; cited from earlier work
[4] = Cox model with VEGFR2 status and interaction-variable, ER positive patients
[5] = Cox model, ER positive patients
[6] = Cox multivariate model with VEGF-A status and interaction-variable, ER positive patients
[7] = Cox multivariate model, ER positive patients
[8] = ER positive patients, univariate
[9] = ER positive, HER2 low tumors, univariate

In the case of `CC/C(=C(\c1ccccc1)c1ccc(OCCN(C)C)cc1)c1ccccc1` [tamoxifen], the “absolute risk reduction (recurrence)” value ([1]; 324 ER positive patients, two years of tamoxifen vs control) is reported as 15%, the “HR, OS, Randomization Tam v control” value [1, 4] is reported as 0.6 and the “HR, RFS, Randomization Tam v control” value [1, 4] is reported as 0.6. The “HR, OS, interaction-variable tamoxifen treatment x VEGFR2 status” value [1, 5] was 5.2, the “HR, RFS, interaction-variable tamoxifen treatment x VEGFR2 status” value [1, 5] was 2.2 and the “HR, OS, Randomization Tam v control” value [1, 6] was 1.1. For the same compound, the “HR, RFS, Randomization Tam v control” value [1, 6] was 0.5, the “HR, OS, interaction-variable tamoxifen treatment x VEGF-A status” value [1, 7] was 0.5 and the “HR, RFS, interaction-variable tamoxifen treatment x VEGF-A status” value [1, 7] was 1.5. For the same compound, the “HR, OS (tamoxifen vs control)” value ([1]; ER negative disease) was 0.9, the “HR, RFS (tamoxifen vs control)” value ([1]; ER negative disease) was 0.9 and the recurrence rate ([1]; ER positive patients, tamoxifen treated group) was 36%. The “HR, OS (tamoxifen vs control)” value [1, 8] was 0.8, the “HR, RFS (tamoxifen vs control)” value [1, 8] was 0.6 and the “HR, OS (tamoxifen vs control)” value [1, 9] was 0.8. For the same compound, the “HR, RFS (tamoxifen vs control)” value [1, 9] was 0.6, the “HR, OS (tamoxifen vs control)” value ([1]; ER positive, HER 2 overexpressing tumor, univariate) was 0.9 and the “HR, RFS (tamoxifen vs control)” value ([1]; ER positive, HER2 overexpression, univariate) was 0.7. The “HR, RFS (tamoxifen vs control)” value ([1]; ER positive, VEGF grade 3 tumors, univariate) was 0.8, the “HR, RFS (tamoxifen vs control)” value ([1]; ER positive, VEGF-A grade 0-2 tumors, univariate) was 0.6 and the “HR, OS (tamoxifen vs control)” value ([1]; ER positive, VEGFA grade 0-2 tumors, univariate) was 0.8. For the same compound, the “HR, OS (tamoxifen vs control)” value ([1]; ER positive, VEGFA grade 3 tumors, univariate) was 0.8, the “HR, OS (tamoxifen vs control)” value ([1]; ER positive, VEGFR2 3) was 3.4 and the “HR, RFS (tamoxifen vs control)” value ([1]; ER positive, VEGFR2 grade 0, 1 or 2 staining intensity) was 0.6. For the same compound, the “HR, OS (tamoxifen vs control)” value ([1]; ER positive, VEGFR2 grade 0-2) was 0.7, the “HR, RFS (tamoxifen vs control)” value ([1]; ER positive, intense expression of VEGFR2 (grade 3)) was 1.4 and the “HR of interaction-variable VEGFR2 status x tamoxifen treatment, OS” value ([2]; Cox model, 10 years, ER positive >90% stained nuclei) was 0.2. For the same compound, the “HR, OS at 10 years (tamoxifen vs control)” value ([2]; ER positive >90% stained nuclei, VEGF-A negative tumors) was 0.3, the “HR, OS at 10 years (tamoxifen vs control)” value ([2]; ER positive >90% stained nuclei, VEGF-A positive tumors) was 0.8 and the “HR, OS at 10 years (tamoxifen vs control)” value ([2]; ER positive >90% stained nuclei, VEGFR2 negative tumors) was 0.2. For the same compound, the “HR, OS at 10 years (tamoxifen vs control)” value ([2]; ER positive >90% stained nuclei, VEGFR2 positive tumors) was 0.9, the “effect on overall survival of tamoxifen treatment” value ([2]; all patients irrespective of hormone receptor content) was “non-significant” and the “tamoxifen response (overall survival)” value ([2]; patients with >90% ER positive cells, 10 years) was “notable at 10-years, however not strictly significant”. The reduction of death [3] was 28% and the reduction of recurrence [3] was 50%.
